“And” between values parts separate entries of the source, which are not always exact repeats. Equal entries are not always repeated.
Target: T1, SMYD3 (Homo sapiens, UniProt Q9H7B4)
T1 construct: Full length recombinant SMYD3 was produced as previously reported; made in house; host or cells: E. coli BL21(DE3), in some cases Rosetta 2
T1 sequence (Q9H7B4 1-428): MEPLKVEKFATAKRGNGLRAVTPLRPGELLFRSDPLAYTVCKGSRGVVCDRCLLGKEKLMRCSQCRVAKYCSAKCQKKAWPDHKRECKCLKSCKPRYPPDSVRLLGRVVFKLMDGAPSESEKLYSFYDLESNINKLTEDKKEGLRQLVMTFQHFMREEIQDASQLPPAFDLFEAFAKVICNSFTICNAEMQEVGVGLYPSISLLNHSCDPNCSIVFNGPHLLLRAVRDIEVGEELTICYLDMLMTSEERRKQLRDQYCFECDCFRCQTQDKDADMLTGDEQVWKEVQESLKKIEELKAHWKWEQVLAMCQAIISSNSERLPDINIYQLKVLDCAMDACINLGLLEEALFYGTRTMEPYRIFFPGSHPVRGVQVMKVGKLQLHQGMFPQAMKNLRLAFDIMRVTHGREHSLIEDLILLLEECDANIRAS
Experiment: X-ray crystallography of SMYD3-fragment complexes (co-crystallization and soaking)
Set-up: key to XRC: success or failure of crystallization in complex with SMYD3: The success (+) or failure (−) of crystallization in complex with SMYD3; The success (+) or failure (−) of crystallization in complex with SMYD3
Excerpt: To identify binding sites and binding modes, the fragment hits (Table 1) were used in both co-crystallization and soaking experiments to obtain SMYD3-fragment co-crystals for X-ray crystallographic analyses. Diffraction data of 1.6–1.9 Å maximum resolution were obtained for four fragments (Fig. 5). For data collection and refinement statistics, see ESI, ^† Table S1.
Four new sites were thus identified.
Polder (F0–Fc) maps (Fig. 5, right) were generated to establish whether the observed electron density features were more likely to represent background noise or to belong to bound fragments. These omit maps are generated upon exclusion of the ligand and surrounding solvent from the model, which aids in visualizing weak densities. […] For fragments FL01507, FL08580 and FL08619, a comparison of the maps obtained after refinement with a bound fragment with maps obtained upon their replacement with either glycerol or acetate, which were present in the crystallization or cryo-protectant solutions, respectively, was required.
8 mg mL^−1 of SMYD3 in storage buffer (TBS buffer containing 2 mM DTT) was pre-incubated for 4–8 hours with 5 mM of a respective fragment hit compound and 10% (v/v) DMSO. Subsequently, 1 μL of this solution was mixed with an equal volume of reservoir solution (100 mM Tris, 100 mM magnesium acetate, 15–17% PEG3350, pH 8.25–8.75) to create the drops for co-crystallization by hanging drop vapour diffusion performed at 20 °C. Needle-like co-crystals nucleated within 12 h of equilibration against the reservoir. In addition, crystals of SMYD3 obtained in ligand-free crystallization setups were soaked with fragment solution prior to freezing. All crystals were cryo-protected via brief immersion in reservoir solution supplemented with 10% (v/v) glycerol.
Diffraction data were collected at beamline ID23-1 of the European Synchrotron Radiation Facility (ESRF, Grenoble, France). Data were indexed, auto-processed, scaled and merged on-site using the implemented data processing routines and software. Fragment-associated electron density features were identified upon data analysis with the Pipedream system (version 1.4.0, Global Phasing Ltd, Cambridge, United Kingdom), which includes data processing with autoPROC,[14] molecular replacement with Phaser,[15] structure refinement with BUSTER version 2.10.4 (Global Phasing Ltd, Cambridge, United Kingdom), automated ligand fitting with Rhofit (Global Phasing Ltd, Cambridge, United Kingdom) and BUSTER post-refinement.[16] Refinement was done with Phenix,[17] and model building with Coot.[18] (F0–Fc) difference density maps for models, from which ligand atoms and surrounding water molecules were removed, were generated using Phenix.

XRC: success or failure of crystallization in complex with SMYD3 (5 mM fragment co-crystallization or soaking): (+)
Structure (SMILES): Cn1cnc(S(N)(=O)=O)c1 [FL06268]
Site (binding site in SMYD3 crystal structure) (four sites defined (1–4, Fig. 6) plus active site): both the active site (green surface) and site 2 and 2 + active

Reference: paper PMC11187542, “Identification of fragments targeting SMYD3 using highly sensitive kinetic and multiplexed biosensor-based screening” (RSC Medicinal Chemistry, 2024)
